According to US9598420B2, “Benzodiazepine bromodomain inhibitor” (GlaxoSmithKline LLC, priority 2009, dated 2017):
Structures can show the parent of a compound that is named as a salt.

Test system: LPS induced IL-6 secretion from whole blood
Experiment: Measurement of LPS Induced IL-6 Secretion from Whole Blood
Format: cell-based
Details: LPS 200 ng/ml, 24 hours, immunoassay, read-out: pIC50 (IL-6 levels) (converted)
Description: Activation of monocytic cells by agonists of toll-like receptors such as bacterial lipopolysaccharide (LPS) results in production of key inflammatory mediators including IL-6. Such pathways are widely considered to be central to the pathophysiology of a range of auto-immune and inflammatory disorders.
After further incubation for 24 hours at 37 degrees, 140 ul of PBS are added to each well. The plates are sealed, shaken for 10 minutes and then centrifuged (2500 rpm×10 min). 100 ul of the supernatant are removed and IL-6 levels assayed by immunoassay (typically by MesoScale Discovery technology) either immediately or following storage at −20 degrees.

**Q.** How did the IC50 turn out when `COc1ccc2c(c1)C(c1ccc(Cl)cc1)=N[C@@H](CC(=O)NCCN1CCOCC1)c1nnc(C)n1-2` [Example 45, 2-[(4S)-6-(4-chlorophenyl)-1-methyl-8-(methyloxy)-4H-[1,2,4]triazolo[4,3-a][1,4]benzodiazepin-4-yl]-N-[2-(4-morpholinyl)ethyl]acetamide] was run?
**A.** ≤ 10 µM

**Q.** `COc1ccc2c(c1)C(c1ccc(Cl)cc1)=N[C@@H](CC(=O)Nc1ccncn1)c1nnc(C)n1-2` [Example 54, 2-[(4S)-6-(4-chlorophenyl)-1-methyl-8-(methyloxy)-4H-[1,2,4]triazolo[4,3-a][1,4]benzodiazepin-4-yl]-N-4-pyrimidinylacetamide] was tested. Which IC50 did it give?
**A.** ≤ 10 µM

**Q.** Which IC50 does the source give for `COc1ccc2c(c1)C(c1ccc(Cl)cc1)=N[C@@H](CC(=O)OC(C)(C)C)c1nnc(C)n1-2` [Example 47, (S)-tert-butyl-2-(6-(4-chlorophenyl)-8-methoxy-1-methyl-4H-benzo[f][1,2,4]triazolo[4,3-a][1,4]diazepin-4-yl)acetate] here?
**A.** ≤ 10 µM

**Q.** `COc1ccc2c(c1)C(c1ccc(Cl)cc1)=NC(CC(=O)NCC1CC1)c1nnc(C)n1-2` (stereo not shown) [Example 62] was tested. Which IC50 did it give?
**A.** ≤ 10 µM

**Q.** How did the IC50 turn out when `COc1ccc2c(c1)C(c1ccc(Cl)cc1)=NC(CC(=O)NCCN(C)C)c1nnc(C)n1-2` (stereo not shown) [Example 26, 2-[6-(4-chlorophenyl)-1-methyl-8-(methyloxy)-4H-[1,2,4]triazolo[4,3-a][1,4]benzodiazepin-4-yl]-N-[2-(dimethylamino)ethyl]acetamide] was run?
**A.** ≤ 10 µM

**Q.** Which IC50 does the source give for `COc1ccc2c(c1)C(c1ccc(Cl)cc1)=N[C@@H](CC(=O)NCCN(C)C)c1nnc(C)n1-2` [Example 50, 2-[(4S)-6-(4-chlorophenyl)-1-methyl-8-(methyloxy)-4H-[1,2,4]triazolo[4,3-a][1,4]benzodiazepin-4-yl]-N-[2-(dimethylamino)ethyl]acetamide formic acid salt] here?
**A.** ≤ 10 µM

**Q.** For `COc1ccc2c(c1)C(c1ccc(Cl)cc1)=NC(CC(=O)NCCc1ccccc1)c1nnc(C)n1-2` (stereo not shown) [Example 2, 2-[6-(4-chlorophenyl)-1-methyl-8-(methyloxy)-4H-[1,2,4]triazolo[4,3-a][1,4]benzodiazepin-4-yl]-N-(2-phenylethyl)acetamide], which IC50 is on record?
**A.** ≤ 10 µM

**Q.** `COc1ccc2c(c1)C(c1ccc(Cl)cc1)=N[C@@H](CC(=O)NC1CCOCC1)c1nnc(C)n1-2` [Example 56, 2-[(4S)-6-(4-chlorophenyl)-1-methyl-8-(methyloxy)-4H-[1,2,4]triazolo[4,3-a][1,4]benzodiazepin-4-yl]-N-(tetrahydro-2H-pyran-4-yl)acetamide] was tested. Which IC50 did it give?
**A.** ≤ 10 µM

**Q.** For `COc1ccc2c(c1)C(c1ccc(Cl)cc1)=N[C@@H](CC(=O)Nc1cccnc1)c1nnc(C)n1-2` [Example 13, 2-[(4S)-6-(4-chlorophenyl)-1-methyl-8-(methyloxy)-4H-[1,2,4]triazolo[4,3-a][1,4]benzodiazepin-4-yl]-N-3-pyridinylacetamide], which IC50 is on record?
**A.** ≤ 10 µM

**Q.** How did the IC50 turn out when `COc1ccc2c(c1)C(c1ccc(Cl)cc1)=N[C@@H](CC(=O)NCCc1c[nH]cn1)c1nnc(C)n1-2` [Example 46, 2-[(4S)-6-(4-chlorophenyl)-1-methyl-8-(methyloxy)-4H-[1,2,4]triazolo[4,3-a][1,4]benzodiazepin-4-yl]-N-[2-(1H-imidazol-4-yl)ethyl]acetamide] was run?
**A.** ≤ 10 µM

**Q.** With `COc1ccc2c(c1)C(c1ccc(Cl)cc1)=N[C@@H](CC(=O)N1CCC(N)CC1)c1nnc(C)n1-2` [Example 41, (S)-1-(4-aminopiperidin-1-yl)-2-(6-(4-chlorophenyl)-8-methoxy-1-methyl-4H-benzo[f][1,2,4]triazolo[4,3-a][1,4]diazepin-4-yl)ethanone] as the compound, how does the IC50 read?
**A.** ≤ 10 µM

**Q.** Which IC50 does the source give for `COc1ccc(COC(=O)C[C@@H]2N=C(c3ccc(Cl)cc3)c3cc(OC)ccc3-n3c(C)nnc32)cc1` [Example 58] here?
**A.** ≤ 10 µM

**Q.** Which IC50 does the source give for `COc1ccc2c(c1)C(c1ccc(Cl)cc1)=N[C@@H](CC(=O)N[C@@H](C)c1ccccc1)c1nnc(C)n1-2` [Example 17, 2-[(4S)-6-(4-chlorophenyl)-1-methyl-8-(methyloxy)-4H-[1,2,4]triazolo[4,3-a][1,4]benzodiazepin-4-yl]-N-[(1S)-1-phenylethyl]acetamide] here?
**A.** ≤ 10 µM

**Q.** Which IC50 does the source give for `COc1ccc2c(c1)C(c1ccc(Cl)cc1)=NC(CC(=O)N1CCCCC1)c1nnc(C)n1-2` (stereo not shown) [Example 3, 6-(4-chlorophenyl)-1-methyl-8-(methyloxy)-4-[2-oxo-2-(1-piperidinyl)ethyl]-4H-[1,2,4]triazolo[4,3-a][1,4]benzodiazepine] here?
**A.** ≤ 10 µM

**Q.** How did the IC50 turn out when `COc1ccc2c(c1)C(c1ccc(Cl)cc1)=NC(CC(=O)Nc1ccncc1)c1nnc(C)n1-2` (stereo not shown) [Example 61] was run?
**A.** ≤ 10 µM

**Q.** For `COc1ccc2c(c1)C(c1ccc(Cl)cc1)=N[C@@H](CC(=O)Nc1ccc(F)cc1)c1nnc(C)n1-2` [Example 11, 2-[(4S)-6-(4-chlorophenyl)-1-methyl-8-(methyloxy)-4H-[1,2,4]triazolo[4,3-a][1,4]benzodiazepin-4-yl]-N-(4-fluorophenyl)acetamide], which IC50 is on record?
**A.** ≤ 10 µM

**Q.** Which IC50 does the source give for `COc1ccc2c(c1)C(c1ccc(Cl)cc1)=N[C@@H](CC(=O)OCC(C)C)c1nnc(C)n1-2` [Example 59] here?
**A.** ≤ 10 µM

**Q.** How did the IC50 turn out when `COC(=O)C[C@@H]1N=C(c2ccc(Cl)cc2)c2cc(OC)ccc2-n2c(C)nnc21` [Example 34, Methyl [(4S)-6-(4-chlorophenyl)-1-methyl-8-(methyloxy)-4H-[1,2,4]triazolo[4,3-a][1,4]benzodiazepin-4-yl]acetate] was run?
**A.** ≤ 10 µM

**Q.** `Cc1nnc2n1-c1ccccc1C(c1ccc(Cl)cc1)=NC2CC(=O)Nc1ccncc1` (stereo not shown) [Example 63] was tested. Which IC50 did it give?
**A.** ≤ 10 µM

**Q.** For `CCNC(=O)C[C@@H]1N=C(c2ccc(Cl)cc2)c2ccc(OC)cc2-n2c(C)nnc21` [Example 69], which IC50 is on record?
**A.** ≤ 10 µM

**Q.** Which IC50 does the source give for `Cc1nnc2n1-c1ccc(OS(C)(=O)=O)cc1C(c1ccc(Cl)cc1)=N[C@H]2CC(=O)Nc1ccc(F)cc1` [Example 31, (4S)-6-(4-Chlorophenyl)-4-{2-[(4-fluorophenyl)amino]-2-oxoethyl}-1-methyl-4H-[1,2,4]triazolo[4,3-a][1,4]benzodiazepin-8-yl methanesulfonate] here?
**A.** ≤ 10 µM

**Q.** `COc1ccc2c(c1)C(c1ccc(Cl)cc1)=N[C@@H](CC(=O)N1CCC(O)CC1)c1nnc(C)n1-2` [Example 44, (S)-2-(6-(4-chlorophenyl)-8-methoxy-1-methyl-4H-benzo[f][1,2,4]triazolo[4,3-a][1,4]diazepin-4-yl)-1-(4-hydroxypiperidin-1-yl)ethanone] was tested. Which IC50 did it give?
**A.** ≤ 10 µM

**Q.** For `COc1ccc2c(c1)C(c1ccc(Cl)cc1)=N[C@@H](CC(=O)Nc1cc(C)on1)c1nnc(C)n1-2` [Example 55, 2-[(4S)-6-(4-chlorophenyl)-1-methyl-8-(methyloxy)-4H-[1,2,4]triazolo[4,3-a][1,4]benzodiazepin-4-yl]-N-(5-methyl-3-isoxazolyl)acetamide], which IC50 is on record?
**A.** ≤ 10 µM

**Q.** For `COc1ccc2c(c1)C(c1ccc(Cl)cc1)=N[C@@H](CC(=O)N1CC(N)C1)c1nnc(C)n1-2` [Example 43, (S)-1-(3-aminoazetidin-1-yl)-2-(6-(4-chlorophenyl)-8-methoxy-1-methyl-4H-benzo[f][1,2,4]triazolo[4,3-a][1,4]diazepin-4-yl)ethanone], which IC50 is on record?
**A.** ≤ 10 µM

**Q.** Which IC50 does the source give for `COc1ccc2c(c1)C(c1ccc(Cl)cc1)=N[C@@H](CC(=O)OC1CCOCC1)c1nnc(C)n1-2` [Example 60] here?
**A.** ≤ 10 µM

**Q.** Which IC50 does the source give for `COc1ccc2c(c1)C(c1ccc(Cl)cc1)=NC(CC(=O)Nc1nccs1)c1nnc(C)n1-2` (stereo not shown) [Example 64] here?
**A.** ≤ 10 µM

**Q.** `COc1ccc2c(c1)C(c1ccc(Cl)cc1)=NC(CC(=O)NCc1ccco1)c1nnc(C)n1-2` (stereo not shown) [Example 4, 2-[6-(4-chlorophenyl)-1-methyl-8-(methyloxy)-4H-[1,2,4]triazolo[4,3-a][1,4]benzodiazepin-4-yl]-N-(2-furanylmethyl)acetamide] was tested. Which IC50 did it give?
**A.** ≤ 10 µM

**Q.** With `COc1ccc2c(c1)C(c1ccc(Cl)cc1)=N[C@@H](CC(=O)NCCCN(C)C)c1nnc(C)n1-2` [Example 51, 2-[(4S)-6-(4-chlorophenyl)-1-methyl-8-(methyloxy)-4H-[1,2,4]triazolo[4,3-a][1,4]benzodiazepin-4-yl]-N-[3-(dimethylamino)propyl]acetamide formic acid salt] as the compound, how does the IC50 read?
**A.** ≤ 10 µM

**Q.** With `CNC1CCN(C(=O)C[C@@H]2N=C(c3ccc(Cl)cc3)c3cc(OC)ccc3-n3c(C)nnc32)CC1` [Example 40, 1-{[(4S)-6-(4-chlorophenyl)-1-methyl-8-(methyloxy)-4H-[1,2,4]triazolo[4,3-a][1,4]benzodiazepin-4-yl]acetyl}-N-methyl-4-piperidinamine formic acid salt] as the compound, how does the IC50 read?
**A.** ≤ 10 µM

**Q.** With `CNCCNC(=O)C[C@@H]1N=C(c2ccc(Cl)cc2)c2cc(OC)ccc2-n2c(C)nnc21` [Example 38, 2-[(4S)-6-(4-Chlorophenyl)-1-methyl-8-(methyloxy)-4H-[1,2,4]triazolo[4,3-a][1,4]benzodiazepin-4-yl]-N-[2-(methylamino)ethyl]acetamide trifluoroacetic acid salt] as the compound, how does the IC50 read?
**A.** ≤ 10 µM

**Q.** With `COc1ccc2c(c1)C(c1ccc(Cl)cc1)=N[C@@H](CC(=O)NC1CNC1)c1nnc(C)n1-2` [Example 42, (S)-N-(azetidin-3-yl)-2-(6-(4-chlorophenyl)-8-methoxy-1-methyl-4H-benzo[f][1,2,4]triazolo[4,3-a][1,4]diazepin-4-yl)acetamide] as the compound, how does the IC50 read?
**A.** ≤ 10 µM

**Q.** For `COc1ccc2c(c1)C(c1ccc(Cl)cc1)=N[C@@H](CC(=O)OC1CCNCC1)c1nnc(C)n1-2` [Example 48, (S)-piperidin-4-yl-2-(6-(4-chlorophenyl)-8-methoxy-1-methyl-4H-benzo[f][1,2,4]triazolo[4,3-a][1,4]diazepin-4-yl)acetate], which IC50 is on record?
**A.** ≤ 10 µM

**Q.** For `COc1ccc2c(c1)C(c1ccc(Cl)cc1)=N[C@@H](CC(=O)NC1CCNCC1)c1nnc(C)n1-2` [Example 39, 2-[(4S)-6-(4-Chlorophenyl)-1-methyl-8-(methyloxy)-4H-[1,2,4]triazolo[4,3-a][1,4]benzodiazepin-4-yl]-N-4-piperidinylacetamide trifluoroacetic acid salt], which IC50 is on record?
**A.** ≤ 10 µM

**Q.** For `COc1ccc2c(c1)C(c1ccc(Cl)cc1)=NC(CC(=O)Nc1ccc(F)cc1)c1nnc(C)n1-2` (stereo not shown) [Example 67], which IC50 is on record?
**A.** ≤ 10 µM
